Experiments:
Assay type in all cases: functional, cell-based; call rule not given here
HL-60 = assay: Cytotoxicity against human HL60 cells by MTT assay
THP-1 = assay: Cytotoxicity against human THP1 cells by MTT assay
A-375 = assay: Cytotoxicity against human A375 cells by MTT assay
A549 = assay: Cytotoxicity against human A549 cells by MTT assay
[1] = Homo sapiens, HL-60, read-out: IC50

Compound | IC50 (HL-60; [1]) | IC50 (THP-1) | IC50 (A-375) | IC50 (A549) | IC50 (HL-60; hl-60)
CC1=CC(=O)[C@H]2C(C)(C)CCC[C@]2(C)[C@H]1/C=C/C(=O)O [SPICATANOIC ACID] | 69.4 µM | 39 µM | 56.1 µM | 52 µM | –
C=C1CC[C@H]2C(C)(C)CCC[C@]2(C)[C@H]1/C=C/c1ccoc1 [CORONARIN E] | 31.2 µM | 34 µM | 36.6 µM | 53.3 µM | –
COc1cc([C@@H]2c3cc4c(cc3[C@@H](O[C@@H]3O[C@@H]5CO[C@@H](C)O[C@H]5[C@H](O)[C@H]3O)[C@H]3COC(=O)[C@H]23)OCO4)cc(OC)c1O [ETOPOSIDE] | 2.16 µM | 1.83 µM | – | – | –
CC1(C)CCC[C@]2(C)[C@@H](/C=C/c3ccoc3)C(CO)=CC(=O)[C@@H]12 [YUNNACORONARIN D] | 36.4 µM | 59.5 µM | 41.9 µM | 51.2 µM | –
CCOC(=O)/C=C/c1ccccc1 [ETHYL CINNAMATE] | 35.7 µM | 41.2 µM | 31.6 µM | 50.4 µM | –
C=C1CC[C@H]2C(C)(C)CCC[C@]2(C)[C@H]1C | – | 53.9 µM | 50.2 µM | 61.3 µM | Not Active
O=c1cc(-c2ccccc2)oc2cc(O)cc(O)c12 [CHRYSIN] | 34 µM | 23.4 µM | 29.7 µM | 19.9 µM | –
CCOC(=O)/C=C/c1ccc(OC)cc1 [4-METHOXY ETHYL CINNAMATE] | 29.6 µM | 33.5 µM | 31.3 µM | – | –
CC1(C)CCC[C@]2(C)[C@@H](/C=C/c3ccoc3)C(C=O)=C(O)C(=O)[C@@H]12 | 16 µM | 23.4 µM | 21.6 µM | 37.9 µM | –
